A short description of series [1]: Stability, conditional stability and selectivity constants and pM value for gadolinium. Type of series: physicochemical. To be noted: for log K′sel: conditional stability constant (K′Sel); for log K′sel / {log KGdL(PH 7.4)} / [log Ksel(Gd/Ca)] / [log Ksel(Gd/Cu)] / [log Ksel(Gd/Zn)]: 25° C., μ = 0.10M (KCl); for pGd: pM = −log[Mn+] free at pH 7.4, [Mn+] total = 1 μmol/dm3, [L] total = 1.1 μmol/dm3; for [log Ksel(Gd/Ca)]: selectivity constant Gd over Ca; for [log Ksel(Gd/Cu)]: selectivity constant Gd over Cu; for [log Ksel(Gd/Zn)]: selectivity constant Gd over Zn; for [GdL]/[Gd][L]: stability constant, log K (25° C., μ = 0.10M (KCl)).
From the text: (§1) The stability constant (KML) can be defined by the equation of KML=[ML]/[M][L], wherein M is Gd, Ca, Zn, Cu, and L indicates a ligand.
(§2) The pM value can be defined by the equation of pM=−log [Mn^+] at pH=7.4.
[M]=1.0 μmol/dm^3, [L]=1.1 μmol/dm^3

Series [2] can be described thus: Stability constant and pM value for calcium. Format: physicochemical. The following applies: for {log KCaL(PH 7.4)}: 25° C., μ = 0.10M (KCl); for pCa: pM = −log[Mn+] free at pH 7.4, [Mn+] total = 1 μmol/dm3, [L] total = 1.1 μmol/dm3; for [CaL]/[Ca][L]: stability constant, log K (25° C., μ = 0.10M (KCl)).
From the text: as §1, §2
[M]=1.0 μmol/dm^3, [L]=1.1 μmol/dm^3
Series [3] can be described thus: Stability constant and pM value for zinc. Type of series: physicochemical. The following applies: for {log KZnL(pH 7.4)}: 25° C., μ = 0.10M (KCl); for pZn: pM = −log[Mn+] free at pH 7.4, [Mn+] total = 1 μmol/dm3, [L] total = 1.1 μmol/dm3; for [ZnL]/[Zn][L]: stability constant, log K (25° C., μ = 0.10M (KCl)).
From the text: as §1, §2
[M]=1.0 μmol/dm^3, [L]=1.1 μmol/dm^3
The nature of series [4]: Stability constant and pM value for copper. Type of series: physicochemical. The following applies: for {log KCuL(pH 7.4)}: 25° C., μ = 0.10M (KCl); for pCu: pM = −log[Mn+] free at pH 7.4, [Mn+] total = 1 μmol/dm3, [L] total = 1.1 μmol/dm3; for [CuL]/[Cu][L]: stability constant, log K (25° C., μ = 0.10M (KCl)).
From the text: as §1, §2
[M]=1.0 μmol/dm^3, [L]=1.1 μmol/dm^3
Series [5] in a line: Measurement of protonation equilibrium constants (KiH) of the ligands. The following applies: for [H2L]/[HL][H] / [H3L]/[H2L][H] / [H5L][H4L][H] / [HL]/[L][H]: protonation equilibrium constant, log K (25° C., μ = 0.10M (KCl)); for ΣpKa: 25° C., μ = 0.10M (KCl).
From the text: The protonation equilibrium constant (KiH) can be defined by the equation of KiH═[HiL]/[Hi-1L][H^+], wherein HiL is a protonated ligand (i=1, 2, . . . ).
For series [6] the following is noted: 20 MHz, 298 K; cited from earlier work.
A short description of series [7]: Measurement of self-relaxation rate (relaxivity) R1 at 1.5 T (64 MHz). Format: physicochemical. The following applies: inverse recovery method. The method, then: Thus, the self-relaxation rate is a factor that determines the efficiency of contrast agent in magnetic resonance imaging. T1 (relaxation time) measurements were carried out using an inverse recovery method with a variable […] (TI) at 1.5 T (64 MHz). The magnetic resonance (MR) images were acquired at 35 different T1 values ranging from 50 to 1750 msec. T1 was obtained from the non-linear least square fit of the signal intensity measured at each TI value. Relaxivity (R1) was then calculated as an inverse of relaxation time per mM.

For `O=C(O)CN(CCN(CC(=O)O)CC(=O)NC(Cc1cnc[nH]1)C(=O)O)CCN(CC(=O)O)CC(=O)NC(Cc1cnc[nH]1)C(=O)O` (stereo not drawn) [Complex L1, DTPA-bis-amide-histidine], in series [1], the “log K′sel” value amounted to 19.59, the “{log KGdL(PH 7.4)}” value was found to be 17.03, the pGd was found to be 16.03 and the “[log Ksel(Gd/Ca)]” value worked out at 12.73. In series [1], the “[log Ksel(Gd/Cu)]” value is 8.66, the “[log Ksel(Gd/Zn)]” value is recorded as 8.66 and the “[GdL]/[Gd][L]” value is 19.59. In series [2], the “{log KCaL(PH 7.4)}” value was 4.30, the pCa was determined as 3.30 and the “[CaL]/[Ca][L]” value is 6.86. Moreover, in series [3], the “{log KZnL(pH 7.4)}” value is 8.37, the pZn is given as 7.37 and the “[ZnL]/[Zn][L]” value is on record as 10.93. In series [4], the “{log KCuL(pH 7.4)}” value came to 8.42, the pCu was 7.42 and the “[CuL]/[Cu][L]” value is 10.98. For the same molecule, in series [5], the “[H2L]/[HL][H]” value is given as 7.59, the “[H3L]/[H2L][H]” value is 6.52, the “[H5L][H4L][H]” value worked out at 3.82 and the “[HL]/[L][H]” value is 9.52.

As for `O=C(O)CC(NC(=O)CN(CCN(CCN(CC(=O)O)CC(=O)NC(CC(=O)O)C(=O)O)CC(=O)O)CC(=O)O)C(=O)O` (stereo not drawn) [Complex L2, DTPA-bis-amide-aspartic acid], in series [1], the “log K′sel” value was 10.74, the “{log KGdL(PH 7.4)}” value came out at 14.93, the pGd came out at 13.98 and the “[log Ksel(Gd/Ca)]” value worked out at 10.92. Also, in series [1], the “[log Ksel(Gd/Cu)]” value turned out to be 6.34, the “[log Ksel(Gd/Zn)]” value was 6.45 and the “[GdL]/[Gd][L]” value was determined as 21.12. Also, in series [2], the “{log KCaL(PH 7.4)}” value was determined as 4.01, the pCa is on record as 30.1 and the “[CaL]/[Ca][L]” value is on record as 10.18. Also, in series [3], the “{log KZnL(pH 7.4)}” value worked out at 8.48, the pZn is reported as 7.48 and the “[ZnL]/[Zn][L]” value was 14.67. For the same molecule, in series [4], the “{log KCuL(pH 7.4)}” value was determined as 8.59, the pCu is 7.59 and the “[CuL]/[Cu][L]” value was 14.78. Further, in series [5], the ΣpKa is listed as 28.93, the “[H2L]/[HL][H]” value was determined as 9.42, the “[H3L]/[H2L][H]” value was determined as 5.92 and the “[H5L][H4L][H]” value was determined as 2.04. In addition, the “[HL]/[L][H]” value in series [5] was found to be 11.55.

Consider `CNC[C@H](O)[C@@H](O)[C@H](O)[C@H](O)CO.CNC[C@H](O)[C@@H](O)[C@H](O)[C@H](O)CO.O=C([O-])CN(CCN(CC(=O)[O-])CC(=O)O)CCN(CC(=O)[O-])CC(=O)O.[Gd+3]` [Magnevist, (N-Me-glucamine)2[Gd(DTPA)(H2O)]], for which the self-relaxation rate result in series [6] was “approximately 4.7 mM^−1s^−1”.

Turning to `CNC(=O)CN(CCN(CCN(CC(=O)[O-])CC(=O)NC)CC(=O)[O-])CC(=O)[O-].[Gd+3]` [Omniscan, [Gd(DTPA-bismethylamide)(H2O)], reference compound], in series [1], the “log K′sel” value is recorded as 9.03, the “{log KGdL(PH 7.4)}” value was 14.84, the pGd is given as 13.88 and the “[log Ksel(Gd/Ca)]” value came to 9.68. In addition, in series [1], the “[log Ksel(Gd/Cu)]” value turned out to be 3.82, the “[log Ksel(Gd/Zn)]” value was determined as 4.81 and the “[GdL]/[Gd][L]” value worked out at 16.85. In addition, in series [2], the “{log KCaL(PH 7.4)}” value is on record as 5.11, the pCa was 4.19 and the “[CaL]/[Ca][L]” value stood at 7.17. Also, in series [3], the “{log KZnL(pH 7.4)}” value is reported as 10.02, the pZn worked out at 9.06 and the “[ZnL]/[Zn][L]” value was determined as 12.04. In addition, in series [4], the “{log KCuL(pH 7.4)}” value was found to be 11.06, the pCu was 10.05 and the “[CuL]/[Cu][L]” value came to 13.03. In series [7], the R1 turned out to be 3.3 ± 0.03 mM⁻¹ s⁻¹. In series [6], the self-relaxation rate is 4400 M⁻¹ s⁻¹. For the same molecule, in series [5], the ΣpKa worked out at 17.06, the “[H2L]/[HL][H]” value worked out at 4.38, the “[H3L]/[H2L][H]” value is recorded as 3.31 and the “[HL]/[L][H]” value is listed as 9.37.

`O.O=C([O-])CN(CCN(CC(=O)[O-])CC(=O)NC(Cc1cnc[nH]1)C(=O)O)CCN(CC(=O)[O-])CC(=O)NC(Cc1cnc[nH]1)C(=O)O.[Gd+3]` (stereo not drawn) [[Gd(L1)H2O]] showed an R1 in series [7] of 5.9 ± 0.03 mM⁻¹ s⁻¹.

As to `O.O=C([O-])CN(CCN(CC(=O)[O-])CC(=O)NC(CC(=O)O)C(=O)O)CCN(CC(=O)[O-])CC(=O)NC(CC(=O)O)C(=O)O.[Gd+3]` (stereo not drawn) [[Gd(L2)H2O]], the R1 in series [7] was found to be 6.9 ± 0.04 mM⁻¹ s⁻¹.
